pIC50: −log10 of the molar value. Several values for one entry are separate records, joined by “and”; a condition that tells them apart may be missing. Equal values may be shown once. Read-outs that look alike come from different tables or passages of the source.
Key:
[1] = target: receptor interacting protein 1 (RIP1); conditions: cited from earlier work; for pIC50: RIP1 inhibitor potency
[2] = test system: indoleamine 2,3-dioxygenase (IDO); set-up: method as in PMID 23190609; conditions: cited from earlier work
[3] = test system: abdominal aortic aneurisms (elastase perfusion); set-up: method as in PMID 28186202; conditions: mice with aneurysm induced by elastase perfusion, cited from earlier work
[4] = set-up: method as in PMID 28946210; conditions: rat plasma, cited from earlier work
[5] = test system: receptor interacting protein 1 (RIP1); assay: RIP1 inhibition (necrostatin potency); assay type: biochemical; conditions: Nec-1s vs Nec-1
[6] = Nec-1s plasma levels in rats by HPLC-Q-TOF after i.v. bolus; assay type: in vivo, male Wistar rats; conditions: for concentration at 50 min: male, Wistar, rat, plasma, iv, 0.37 mg/kg
Method: The developed and validated HPLC-Q-TOF method was applied for the determination of real plasma concentrations of Nec-1s in 5 male Wistar rats after i.v. administration of a bolus dose of Nec-1s (0.37 mg/kg). The samples taken from each subject were prepared and analyzed in triplicate. […] The measured data were consistent to each other with plasma concentrations in the range of 319.81–466.52 nM, and mean value of 377.26 nM. The differences in the found concentrations can be explained by different metabolism in the studied animals.
A total of 11 male Wistar rats (250–300 g body weight) were housed under standard conditions with a controlled light/dark cycle (12/12 h) and temperature (22 °C ± 2 °C), and fed a standard diet and tap water ad libitum. The anesthetized animals (natrium pentobarbital 60 mg/kg, i.p.) were randomized in two groups to receive either vehicle (C, n = 6) or Nec-1s (N, n = 5) and blood was collected from the abdominal aorta 50-min after drug application (a bolus dose; 0.37 mg/kg, i.v.; diluted in 20% v/v DMSO) into EDTA-containing syringes (S-Monovette, Starstedt, Germany). To obtain plasma, the blood was centrifuged at 4 °C for 15 min at 4000× g. The aliquots of plasma were stored at −80 °C until further procedure.
An aliquot of plasma was thawed at laboratory temperature. Afterwards, the rat plasma (180 µL) was mixed with the internal standard solution (20 µL, 1.25 µg/mL of prednisone in 50% (v/v) methanol). […] The precipitated sample was vortexed for 5 min (2400 rpm) and then centrifuged for 10 min (15000× g; 4 °C). After the centrifugation, 800 µL of supernatant was transferred into another tube and evaporated to dryness under a gentle stream of nitrogen at ambient temperature. The residuals were reconstituted with 100 µL of mobile phase (25:75 mixture of acetonitrile and water containing 0.1% formic acid) and an aliquot of the solution (5 µL) was used for the HPLC-DAD-Q-TOF analysis.
All of the analyses were carried out on the chromatographic apparatus consisting of LC Agilent Infinity System (Agilent Technologies, Santa Clara, CA, USA) equipped with a gradient pump (1290 Bin Pump VL), an automatic injector (1260 HiPals), and column thermostat (1290 TCC; set at 4 °C). The LC system was hyphenated with a photodiode array detector (Infinity 1290 DAD), and quadrupole time-of-flight (Q-TOF) mass spectrometer (Agilent 6520 Accurate-Mass Q-TOF LC/MS) equipped with the electrospray ionization (ESI) source operated in a positive ionization mode. A computer with a MassHunter software (version MassHunter Workstation B.05.01, Agilent Technologies) was used to control the apparatus as well as acquire and process the data. The Q-TOF mass spectrometer was operated under following parameters: drying gas temperature 360 °C, drying gas flow 12 L/min, nebulizing gas pressure 60 psi, capillary voltage 5500 V, fragmentor voltage 125 V, skimmer voltage 65 V, OctopoleRFPeak 550 V, and collision gas N2. […] In the processing the exact (theoretical) masses of their [M + H]^+ (278.0691 for Nec-1s; 359.1853 for prednisone), and [M + Na]^+ (300.0510 for Nec-1s; 381.1672 for prednisone) adducts were used. For the MS spectra obtained by the analysis of the stock solutions of Nec-1s and prednisone see Figure 4. The theoretical and experimentally found masses of the Nec-1s and prednisone adducts were in a very good mutual agreement so that Q-TOF was suitable for an unambiguous confirmation of the identity of the analyzed compounds in the samples. The EIC were extracted with m/z expansion of ±10 ppm. In case of DAD detector, the peak areas of the analyte and IS were evaluated at the wavelength of 280 nm.
The chromatographic separation of the Nec-1s was achieved by using RP-C18 chromatographic column–Zorbax Extend-C18, 2.1 × 50 mm, 1.8 µm obtained from Agilent Technologies. A gradient elution of mobile phases consisting of 0.1% formic acid in LC-MS water (A) and 0.1% formic acid in acetonitrile (B) was used. […]

[7] = set-up: method as in PMID 23190609; conditions: cited from earlier work
[8] = set-up: method as in PMID 23190609; conditions: cited from earlier work; remark: listed apart in the source
[9] = individual rats N1-N5, 50 min after i.v. bolus dose 0.37 mg/kg, n = 3 analyses

SMILES	pIC50 [1]	effect on IDO [2]	aortic diameter vs control ([3]; p = 0.1)	concentration level at 5 min after i.v. administration ([4]; i.v., 5 min)	concentration level at 1 h after i.v. administration ([4]; i.v., 1 h)	concentration level at 8 h after i.v. administration ([4]; i.v., 8 h)	concentration after 8 h, oral administration ([4]; oral, after 8 h)	peak concentration after oral administration ([4]; oral)	time of peak concentration after oral administration ([4]; oral)	inhibition activity relative to Nec-1 [5]	Plasma Concentration (nM) [6, 9]	Plasma Concentration (ng/mL) [6, 9]	concentration at 50 min ([6]; 50 min after i.v. bolus dose 0.37 mg/kg, 5 male Wistar rats, read-out: plasma concentration, mean value of 5 rats)	concentration at 50 min ([6]; 50 min after i.v. bolus dose 0.37 mg/kg, 5 male Wistar rats, read-out: plasma concentrations, range over 5 rats)	concentration at 50 min ([6]; individual rats N1-N5, 50 min after i.v. bolus dose 0.37 mg/kg, n = 3 analyses, read-out: Plasma Concentration)	concentration at 50 min ([6]; individual rats N1-N5, 50 min after i.v. bolus dose 0.37 mg/kg, n = 3 analyses, read-out: Plasma Concentration (ng/mL))	aortic expansion ([3]; control 172.80%, p < 0.05)	metabolic stability in comparison to Nec-1 [7]	in vivo and in vitro toxicity compared with Nec-1 [8]	capability to inhibit RIP1 [1]
CN1C(=O)C(Cc2c[nH]c3ccccc23)NC1=S (centres unmarked) [Nec-1, 5-(indol-3-ylmethyl)(2-thio-3-methyl)hydantoin]	6.31	concomitant inhibition of indoleamine 2,3-dioxygenase (IDO)	smaller but the difference was not statistically significant	1733 ng/mL	617 ng/mL	< 100 ng/mL	undetectable	648 ng/mL	1 h											
CN1C(=O)NC(Cc2c[nH]c3c(Cl)cccc23)C1=O (centres unmarked) [Nec-1s, 5-((7-chloro-1H-indol-3-yl)methyl)-3-methyl-2,4-imidazolidinedione]	6.68	does not influence IDO								2 times	327.43 nM and 398.08 nM and 319.81 nM and 466.52 nM	90.93 ng/mL and 110.55 ng/mL and 88.81 ng/mL and 129.56 ng/mL	377 nM	320 to 467 nM	374 nM	104 ng/mL	64.12%	metabolically more stable	reduced	
O=C1NC(=S)NC1Cc1c[nH]c2ccccc12 (centres unmarked) [Nec-1i]		found to be an IDO inhibitor																		lacking the capability to inhibit RIP1

From article PMC6222636, “Determination of Novel Highly Effective Necrostatin Nec-1s in Rat Plasma by High Performance Liquid Chromatography Hyphenated with Quadrupole-Time-of-Flight Mass Spectrometry” (Molecules : A Journal of Synthetic Chemistry and Natural …, 2018)
